Source: patent US10182569B2, “Composition comprising allantoin and method of applying allantoin to a plant” (Kaneka Corporation, priority 2016, dated 2019)
“And” between values parts separate entries of the source, which are not always exact repeats. Equal values may be shown once. Read-outs that look alike come from different tables or passages of the source.

Key:
[1] = system: onion; experiment: High temperature stress resistance of onion via allantoin application (Experiment 2); format: in vivo, onion (variety: Neoearth); details: for viability 3 days after the heat shock treatment: 1 mM allantoin 40 ml/pot 6 days after sowing
Experimental: (§1) A 5-cm polypot was mounted on a balance dish BD-2 (AS ONE Corporation), 70 ml of vermiculite (Protoleaf Inc.) was introduced thereinto, 80 ml of culture soil (TAKII & CO., LTD.) was further introduced thereinto, 3 seeds of onion (variety: Neoearth; TAKII & CO., LTD.) were sowed at 3 positions, and 20 ml of vermiculite was further introduced thereinto, so as to cover the soil. Thereafter, 50 ml of tap water was supplied to the balance dish two times. The polypot (together with the balance dish) was mounted on a bat, and the resultant was then introduced into an incubator at 22° C. and 10,000 Lux for a light period of 12 hours and a dark period of 12 hours, so as to initiate cultivation. The day on which cultivation was initiated was designated as Day 0 after sowing. Germination was observed 5 days after sowing. While leaving 3 plants in each pot (i.e., a plant in each position), other plants were removed therefrom 6 days after sowing.
Tap water or an aqueous solution of 1 mM allantoin was applied to each test group (40 ml/pot) 6 days after sowing (hereafter, referred to as the “water treatment group” or the “allantoin treatment group,” respectively). Tap water was applied to all the pots (40 ml/pot) 11 days after sowing. The pots mounted on the bats were introduced into the incubator 13 days after sowing (at the 2-true-leaf stage in the case of onions), and the plants were exposed to high temperature stress at 45° C. for 1 hour, 1.5 hours, and 2 hours. Soil in the pots was sufficiently humidified before and after high temperature stress application. After the completion of the high temperature stress treatment, the temperature in the incubator was cooled to 22° C., and cultivation was continued. Water was supplied 2 days after the heat shock treatment (40 ml/pot). Thereafter, water was supplied in an amount of 40 ml per pot at intervals of 2 days.
(§2) The “viability” indicates the proportion of the number of survived plants relative to the number of plants subjected to the heat shock treatment. The viability was calculated by regarding plants that would no longer grow (i.e., the plants with the youngest leaves suffering from physical damage, such as whitening, withering, or curling of leaves) as plants that are not survived.

[2] = system: Brassica chinensis komatsuna; experiment: High temperature stress resistance of Brassica chinensis komatsuna via allantoin application (Experiment 3); format: in vivo, Brassica chinensis komatsuna (variety: Rakuten); details: 1 mM allantoin 40 ml/pot 6 and 13 days after sowing, 45° C. for 1 hour
Experimental: as §1, with “Brassica chinensis komatsuna” for “onion”, “Rakuten,” for “Neoearth;”, “the center of the pot,” for “3 positions,”, “bat” for “bat,”, “and” for “and the resultant was then”, “sowing.” for “sowing. Germination was observed 5 days after sowing. While leaving 3 plants in each pot (i.e., a plant in each position), other plants were removed therefrom 6 days after sowing.”
Germination was observed 3 days after sowing. While leaving one plant in each pot, other plants were removed therefrom 6 days after sowing. […]
as §2

[3] = system: DREB2A (AGI code: AT5G05410); experiment: DREB2A gene expression, quantitative PCR, cultivation in allantoin-containing medium (Experiment 5); format: in vivo, Arabidopsis thaliana; details: 1 mM allantoin in ½ MS solid medium, 14 days, leaves and stems, reference gene ACT2
Experimental: (§3) Seeds of wild-type Arabidopsis thaliana line (Columbia-0) were sterilized in 2.5% (v/v) sodium hypochlorite, sowed in the ½ MS solid medium described in Experiment 1 (Table 1) (the medium was supplemented with 1 mM allantoin; allantoin was not added to the control group: a deep petri dish with a diameter of 90 mm and a height of 20 mm), and then allowed to grow under long-day conditions (in an incubator at 5,000 Lux, a light period of 16 hours and a dark period of 8 hours, 22° C.) for 14 days. Using a commercialized kit, RNA extraction from leaves and stems of Arabidopsis thaliana (NucleoSpin RNAII, MACHEREY-NAGEL), reverse transcription (ReverTra Ace qPCR RT Master Mix, TOYOBO), and quantitative PCR (KAPA SYBR FAST qPCR Master Mix, KAPABIOSYSTEMS) were carried out. As a reference gene, ACT2 (AGI code: AT3G18780) was used. As a result, the relative expression level of DREB2A (AGI code: AT5G05410; SEQ ID NO: 1) and that of HSF3 (AGI code: AT5G16820; SEQ ID NO: 2) were 2.2 times and […] greater than the expression level of the control group, respectively.

[4] = system: HSF3 (AGI code: AT5G16820); experiment: HSF3 gene expression, quantitative PCR, cultivation in allantoin-containing medium (Experiment 5); format: in vivo, Arabidopsis thaliana; details: 1 mM allantoin in ½ MS solid medium, 14 days, leaves and stems, reference gene ACT2
Experimental: as §3

[5] = system: Arabidopsis thaliana; experiment: High temperature stress resistance of Arabidopsis thaliana cultivated in allantoin-containing medium (Experiment 6); format: in vivo; details: 10 μM, 100 μM or 1,000 μM allantoin in ½ MS solid medium; 45° C. 105 minutes; grown 1 week
Experimental: The wild-type (WT) line of Arabidopsis thaliana (L.) Heynh., accession Columbia-0 described in Experiment 1 was used.
The ½ MS solid medium described in Experiment 1 (Table 1) was used (10 μM, 100 μM, or 1,000 μM allantoin was further added to the allantoin-supplemented group, allantoin was not added to the allantoin-free group, a deep sterilized petri dish No. 903 VALMARK; Ina-Optika Corporation).
(5) In the petri dish, a circular accommodation part (a plane view) is divided into 2 semicircular compartments by a partition wall extended toward a diametrical direction. The allantoin-free ½ MS solid medium was accommodated in one of the compartments of the petri dish, the allantoin-supplemented ½ MS solid medium was accommodated in another compartment, and 15 seeds were sowed in each compartment (i.e., 30 seeds in total per petri dish) (FIG. 5A).
(8) The resultant was transferred to a culture chamber and cultured therein at 22° C. under long-day conditions (light application for 16 hours under fluorescent light: 0.07 mmol photons […] s^−1) for 7 days. […]
(10) Thereafter, the petri dish was cooled in an incubator at 23° C. for 10 to 15 minutes, and the plants were then allowed to grow again for 1 week under the conditions (8). […] The viability was evaluated on the basis of such phenomenon. […]

[6] = system: creeping bentgrass; format: in vivo, creeping bentgrass (variety: 007); details: 1 mM allantoin 40 ml/pot on Days 7, 10 and 13; measured Day 13 after sowing; mean of 20 grasses per pot
Experimental: (§4) A polypot with 5 cm each side was placed on a balance dish BD-2 (AS ONE Corporation), and 120 ml of joint- and bed-soil for turf grass (TACHIKAWA HEIWA NOUEN CO., LTD.) was then added into the pot. Thereafter, 140 mg of seeds of creeping bentgrass (variety: 007, Power Shop FUJI) was seeded on the soil, and 3 ml of the soil was further added onto the seeds. Thereafter, 10 ml of tap water was supplied to the balance dish. The polypot (together with the balance dish) was placed on a tray, and was then placed in an artificial climate chamber having a temperature of 20° C., a light intensity of 300 μmol/m^2/s, a light period of 16 hours, a dark period of 8 hours, and a humidity of 70%, and thereafter, cultivation was initiated. The day on which cultivation was initiated was defined as Day 0 after sowing. On Day 2 after sowing, 40 ml/pot tap water was applied to all pots. On Day 5 after sowing, germination was confirmed.
On Days 7, 10 and 13 after sowing, tap water (hereinafter referred to as a “water group”) or a 1 mM allantoin aqueous solution (hereinafter referred to as an “allantoin group”) was applied, in an amount of 40 ml/pot, to individual experiment groups. […]
On Day 13 after sowing, 20 turf grasses were selected from each pot, and the grass height and fresh weight of each grass were then measured. Based on the measured values, a mean value was calculated. […]

[7] = system: creeping bentgrass; format: in vivo, creeping bentgrass (variety: 007); details: measured Day 15
Experimental: as §4
On Days 6, 11 and 13 after sowing, tap water (hereinafter referred to as a “water group”) or a 0.5 or 1 mM allantoin aqueous solution (hereinafter referred to as an “allantoin group”) was applied, in an amount of 40 ml/pot, to individual experiment groups. On and after Day 13 after sowing, a difference was found in the growth of turf glasses among individual groups. On Day 15, 20 turf grasses were selected from each pot, and the grass height and fresh weight of each grass were then measured. Based on the measured values, a mean value was calculated.

[8] = system: rice (Koshihikari); experiment: Leaf Area Index of rice in paddy field after allantoin application to seedlings (Experiment 9); format: in vivo; details: for LAI (Leaf Area Index): 1 mM allantoin 3 L per nursery box on Day 26 after sowing, two plant bodies
Experimental: A 1 mM allantoin aqueous solution or water was applied in an amount of 3 L each to the seedlings of rice (Koshihikari) on Day 26 after sowing (the size of a nursery box: 280×580×28 (mm) (depth×width×height)). A total of the applied dose of allantoin per unit area, which was applied for a single application in Experiment 9, was 3.0 g/m^2 (1.05 g/m^2 relative to allantoin nitrogen) in the 1 mM allantoin group.
Twelve hours after the application, the seedlings were planted in a paddy field, and were then allowed to grow for 55 days and for 63 days. Thereafter, using a leaf area measurement apparatus LAI-2200 (MEIWAFOSIS CO., LTD.), Leaf Area Index (LAI) which indicates the leaf area under conditions in which the plant still grows in the field, was non-destructively measured. LAI was obtained from two plant bodies in each of the allantoin group and the water group (n=2).

[9] = system: wild-type Arabidopsis thaliana; details: allantoin administered to wild-type Arabidopsis thaliana; cited from earlier work
[10] = system: Arabidopsis thaliana; details: application of allantoin to Arabidopsis thaliana; cited from earlier work
[11] = system: rice; details: rice seeds immersed in 300 mg/L allantoin solution for 24 hours; cited from earlier work
[12] = 0.5 mM allantoin 40 ml/pot on Days 6, 11 and 13
[13] = 1 mM allantoin 40 ml/pot on Days 6, 11 and 13

With NC(=O)NC1NC(=O)NC1=O (racemic) [Allantoin] the “viability 3 days after the heat shock treatment” value (from here on “viability 3 days”) ([1]; 45° C. for 1 hour) was 66.7%, the “viability 3 days” value ([1]; 45° C. for 1.5 hours) was 33.3% and the “viability 3 days” value ([1]; 45° C. for 2 hours) was 11.1%. The “viability 8 days after heat shock treatment” value ([1]; 1 mM allantoin, 45° C. for 1, 1.5 and 2 hours, compared with 3 days) was “same viability”, the “viability 7 days after the heat shock treatment” value [2] was 100% and the “relative expression level of DREB2A versus control group” value [3] was 2.2 times. For the same molecule, the “relative expression level of HSF3 versus control group” value [4] was 0.7 times, the “resistance to high temperature stress (viability)” value [5] was “has resistance to high temperature stress” and the Fresh weight [6] was 2.9 mg. The Grass height [6] was 5.6 cm, the Fresh weight [7, 12] was 3 mg and the Grass height [7, 12] was 5.8 cm. For the same molecule, the Fresh weight [7, 13] was 3.1 mg, the Grass height [7, 13] was 5.9 cm and the “LAI (Leaf Area Index)” value ([8]; 55th day in paddy field) was 1.94 m^2/m^2 and 2.04 m^2/m^2. For the same molecule, the “LAI (Leaf Area Index)” value ([8]; 63rd day in paddy field) was 2.71 m^2/m^2 and 2.82 m^2/m^2, the “LAI smaller than the LAI of the water group” value ([8]; 55th day) was “approximately 25%” and the “LAI smaller than the LAI of the water group” value ([8]; 63rd day) was “approximately 10%”. For the same molecule, the “production of abscisic acid” value [9] was “promoted”, the plant growth [10] was “promoted” and the “height of the seedlings, number of roots and fresh weight of the seedlings versus water control” value [11] was “increased”.
